Consider 78 compounds from publication PMC12040169 (PLOS Biology, 2025).

The data set is described as follows: in vitro. Conditions: human, hela cells, % viability.

In the case of `CCN1C(=O)N(CC)C2C1NC(=O)N2CCCC(=O)O` (stereo not drawn) [CBK287131], the viability (in general, a read-out of living cells in per cent, often relative to untreated cells) at 28.5 h, 10 µM is 89.3%. Take `COc1cccc(CN2CCN(C(=O)Cc3cccs3)[C@@H](C)C2)c1` [CBK285487]: the viability at 28.5 h, 10 µM is 104%. On the same count and under the same terms, the result for `CC(C)C(=O)N1CCC(OCc2ccc(-c3ccc(C(=O)N(C)C)cc3)cc2S(C)(=O)=O)CC1` [CBK155921] reads 102%. On the same count and under the same terms, the value for `O=C(c1n[nH]c2c1CCC2)N1CCC(c2ccccc2)C1` (stereo not drawn) [CBK281851] was 87.9%.

Regarding `CNC(=O)Oc1cc(C)c(SC)c(C)c1` [CBK010586], the viability at 28.5 h, 10 µM was determined as 77.2%. The same measure, in the same setting: the result for `CCc1ccccc1S(=O)(=O)N1CCOC(c2cnn(CC)c2)C1` (stereo not drawn) [CBK305421] reads 94.8%; that for `O=C1Nc2ccc(-c3ccc(Cl)cc3)cc2C(=O)N2CCN(C(=O)c3cccnc3)C[C@H]12` [CBK289590], 107%; that for `CCOC(=O)c1cc(Cl)cnc1C1CCN(C(=O)C2CC2)CC1` [CBK284810], 94.5%. Still for that read-out and setting: the result for `Cc1cc(C)n(C(=O)CCC(=O)Nc2cccc(Cl)c2C)n1` [CBK263851] reads 99.3%; that for `O=C1NCCCC12CCN(Cc1cccs1)CC2` [CBK285346], 85.2%; that for `CCN1CCCc2cc(-c3cncn3CCCn3ccnc3C)ccc21` [CBK281810], 109%. On the same count and under the same terms, the result for `Oc1ccc(/N=C/c2ccc(/C=N/c3ccc(O)cc3)cc2)cc1` [CBK261203] reads 98.5%. With `COc1cccc(NC(=O)CN2CCC(NC(=O)c3cccs3)CC2)c1` [CBK305800], the viability at 28.5 h, 10 µM is 96.3%.

As to `CC(C)(C)Oc1nc(=O)[nH]c(=O)[nH]1` [CBK007194], the viability at 28.5 h, 10 µM was determined as 98.3%. Regarding `CN(C)CCN(C)Cc1ccc2c(c1)Cc1ccccc1-2` [CBK261856], the viability at 28.5 h, 10 µM turned out to be 93.3%.

As for `CCCCc1ccc(-c2cnc3nc(O)ccc3c2)cc1` [CBK081296], the viability at 28.5 h, 10 µM stood at 69.9%.

`O=C(O)CNC(=O)/C(=C/c1ccc(Br)cc1)NC(=O)c1ccc(Br)o1` [CBK262537]: the viability at 28.5 h, 10 µM was found to be 80.1%. Still for that read-out and setting: the value for `O=C(N/N=C/C1C=Nc2ccccc21)c1cc([N+](=O)[O-])cc([N+](=O)[O-])c1` (stereo not drawn) [CBK261485] was 89.8%; that for `O=C1CCCN1CCCNC(=O)N1CCN(Cc2ccccc2)CC1` [CBK155658] was 104%. The same measure, in the same setting: the value for `O=C(Nc1ccc(Cc2ccc(NC(=O)c3ccccc3F)c(O)c2)cc1O)c1ccccc1F` [CBK268366] was 90.4%; that for `CC(C(=O)N[C@H]1C2CCCCC2[C@@H]1c1ccccc1)N1CCOCC1` (stereo partly drawn) [CBK282964] was 86.4%. The same measure, in the same setting: the value for `O=C(c1ccc2nc[nH]c2c1)N1CCC2(CCN(Cc3ccccc3)C2)C1` (stereo not drawn) [CBK136862] was 94.1%; that for `Cc1nnc(CN(CC2CCCO2)C2CCCC2)n1C1CC1` (stereo not drawn) [CBK304147] was 95.5%. Regarding `Cc1cccc(-c2nccnc2C2CCCN(C(=O)COc3ccc(F)cc3)C2)c1` (stereo not drawn) [CBK286241], the viability at 28.5 h, 10 µM worked out at 88.1%.

Regarding `O=C(O)CCC(=O)N1N=C(c2c(-c3ccccc3)c3cc(Cl)ccc3[nH]c2=O)CC1c1ccccn1` (stereo not drawn) [CBK296106], the viability at 28.5 h, 10 µM turned out to be 97.3%. Turning to `CCc1cc(NC[C@@H](O)CO)nc(-c2cc(F)c(F)c(F)c2)n1` [CBK132879], the viability at 28.5 h, 10 µM worked out at 94.2%. Same read-out and setting: the value for `Nc1ncn(Cc2ccccc2)c2nc(SCc3ccccc3)nc1-2` [CBK025744] was 106%. On the same count and under the same terms, the value for `CN1C[C@@H](NC(=O)Nc2ccccc2)C[C@H]1c1nc(-c2cccnc2)no1` [CBK288858] was 104%; that for `O=C(CN1C(=O)COc2ccc(Cl)cc21)Nc1ccc2[nH]c(=O)[nH]c2c1` [CBK268295] was 111%; that for `O=C(O)CCSC1=CCS(=O)(=O)c2ccc(Cl)cc21` [CBK013721] was 114%.

As for `CCCNC(=O)Cn1nc(-c2cc3c(s2)CCC3)oc1=O` [CBK284713], the viability at 28.5 h, 10 µM amounted to 95.2%. Take `O=C(Cc1ccc(Cl)cc1)Nc1ccc(Oc2ccc3c(c2)C(=O)NC3=O)cc1` [CBK265869]: the viability at 28.5 h, 10 µM amounted to 87.8%. On to `C/C(=N\NC(=O)C1CC1)c1ccc(C)cc1` [CBK016047], for which the viability at 28.5 h, 10 µM was 90.7%. As to `COc1ccc(-c2onc(C)c2-c2cnn(-c3ccccc3)c2)c(O)c1` [CBK296095], the viability at 28.5 h, 10 µM stood at 116%.

On to `c1cc2c(cc1CCNCc1ccc3c(c1)OCO3)OCO2` [CBK074501G], for which, for the setting “bulk resorufin, single well”, the viability at 28.5 h, 10 µM amounted to 98.9%. `COc1ccc(F)cc1-c1ccccc1CC1(C(=O)NCc2cccs2)CCOCC1` [CBK286416]: the viability at 28.5 h, 10 µM came to 93.7%. Same read-out and setting: the value for `CC(Cc1c[nH]c2ccccc12)NC(=O)CN` (stereo not drawn) [CBK218213C] was 100%; that for `Cn1nc(-c2ccc(S(=O)(=O)NCCN3CCNC3=O)s2)cc1C(F)(F)F` [CBK062610] was 91.6%. On the same count and under the same terms, the value for `CS(=O)(=O)c1ccc(-c2ccc3c(c2)C(=O)NC(C2CCN(C(=O)OCc4ccccc4)CC2)O3)cc1` (stereo not drawn) [CBK156087] was 98.1%; that for `NCCCNC(=O)c1ccc(-c2cccc(C(F)(F)F)c2)o1` [CBK107454] was 89.4%; that for `O=C(O)CCN1CCCC2(CCN(C(=O)Cc3c[nH]c4ccccc34)C2)C1` (stereo not drawn) [CBK137138] was 114%. For `CC(C)(C)C1CCC(OC(=O)Cn2nnc3ccccc3c2=O)CC1` (stereo not drawn) [CBK306408], the viability at 28.5 h, 10 µM was 88.9%. `COc1ccc2ccccc2c1[S+]([O-])NC1CCCCC1` (stereo not drawn) [CBK022400]: the viability at 28.5 h, 10 µM stood at 80.7%. On the same count and under the same terms, the value for `Fc1cccc(COc2nc3ccccc3n3nnnc23)c1` [CBK288198] was 114%; that for `CN1C(=O)c2ccccc2OCCCCC[C@H]2[C@@H]1CCCN2C(=O)c1cc2c([nH]c1=O)CCC2` [CBK292034] was 114%.

On to `CCCn1nnnc1NCc1cccc(Cl)c1` [CBK288130], for which the viability at 28.5 h, 10 µM came to 98.7%. The same measure, in the same setting: the value for `NC(=O)c1cccc(-c2nccnc2N2CCN(CCO)CC2)c1` [CBK036726] was 96.9%; that for `COc1ncc(-c2ccc(NCC(C)C)nc2)c(OC)n1` [CBK036934] was 116%; that for `Cc1nnc(SCC(=O)N/N=C/c2coc3ccccc3c2=O)n1-c1ccccc1` [CBK262842] was 90.3%. Regarding `COc1cccc(-c2nc(-c3ccc4[nH]c(=O)[nH]c4c3)cs2)c1OC` [CBK298271], the viability at 28.5 h, 10 µM worked out at 108%.

`Cn1ccc(CN2CCOC(c3nc(C(C)(C)C)n[nH]3)C2)cc1=O` (stereo not drawn) [CBK304495]: the viability at 28.5 h, 10 µM was 84.5%. On the same count and under the same terms, the result for `O=C(NCCCn1ccnc1)c1cnn2c(C(F)(F)F)cc(-c3cccs3)nc12` [CBK263060] reads 88.7%. The same measure, in the same setting: the result for `COc1cccc(C(=O)NC(c2ccc([N+](=O)[O-])cc2)c2c(O)ccc3ccccc23)c1` (stereo not drawn) [CBK263971] reads 84.2%; that for `O=[N+]([O-])c1ccc(Sc2ccccc2C2=NCCCN2)nc1` [CBK006747C], 101%; that for `O=C(Nc1ccc(F)cc1)c1sccc1NS(=O)(=O)Cc1ccccc1` [CBK004574], 106%. On the same count and under the same terms, the value for `O=C(COc1ccc(Br)cc1)N1CCN(Cc2ccncc2)CC1` [CBK073259] was 98.1%; that for `O=C(CSc1ncccc1C(=O)O)c1ccccc1` [CBK273178] was 94.1%; that for `CC1(C)C/C(=N/O)c2cc3c(nc2C1)CC(C)(C)C/C3=N\O` [CBK261629] was 106%.

Regarding `Cc1ccnc(NS(=O)(=O)c2ccc(NS(C)(=O)=O)cc2)n1` [CBK261552], the viability at 28.5 h, 10 µM is 100%.

`COc1ccc(Nc2nnc(-c3ccc(C(=O)NCCO)cc3)c3ccccc23)cc1` [CBK263735]: the viability at 28.5 h, 10 µM was determined as 90.5%.

As for `COc1ccc(C(NC(=O)CCc2ccccc2)c2ccc3cccnc3c2O)cc1` (stereo not drawn) [CBK293942], the viability at 28.5 h, 10 µM was found to be 86%. Still for that read-out and setting: the result for `Cc1noc2nc(-c3ccco3)cc(C(=O)N(C)CCOc3ccccc3)c12` [CBK295623] reads 90.1%; that for `Cc1nnnn1-c1cc(NC(=O)NCCCn2ccnc2)ccc1F` [CBK305349], 92.1%; that for `COc1cccc(COc2nccnc2-c2ccc(C)cc2C)c1OC` [CBK106995], 93.2%. As to `CCn1c2ccccc2c2cc(/C=N/N3CCN(c4ccccc4OC)CC3)ccc21` [CBK101168], the viability at 28.5 h, 10 µM was 92.6%. Regarding `CC(=O)Nc1cccc(-c2cn3ccnc3c(N3CCN(C)CC3)n2)c1` [CBK037930], the viability at 28.5 h, 10 µM was 95.2%. Turning to `O=C(Nc1cccnc1)N1CCCC(CO)C1` (stereo not drawn) [CBK156068], the viability at 28.5 h, 10 µM came to 92.4%.

As to `CS(=O)(=O)N1CC[C@H](c2nc3ccccc3s2)C1` [CBK289374], the viability at 28.5 h, 10 µM is 77.8%.

Regarding `C=CCn1c(Cc2csc(NC(=O)c3ccc(OC(F)F)cc3)n2)n[nH]c1=S` [CBK295338], the viability at 28.5 h, 10 µM came out at 100%.

For the compound `CN(C)S(=O)(=O)CCNC(=O)c1ccc(-c2ccccc2CO)cc1` [CBK306773], the viability at 28.5 h, 10 µM came out at 95.6%.

Consider `Cn1c(C(N)=O)cc(=O)n1-c1ccc([N+](=O)[O-])cc1` [CBK015873], for which the viability at 28.5 h, 10 µM stood at 101%. Regarding `CC(C)(C)OC(=O)NCc1ccc(-c2cc(NC3CCCCC3)ncn2)cc1` [CBK090898], the viability at 28.5 h, 10 µM is 98.5%. For the compound `Cc1cc(Br)ccc1N1C(=O)NC(=O)/C(=C\c2ccc(-c3ccc(S(N)(=O)=O)cc3)o2)C1=O` [CBK263413], for the setting “bulk resorufin, single well”, the viability at 28.5 h, 10 µM stood at 97.4%. `Nc1nc(N)c2ncn([C@H]3C[C@@H](O)[C@@H](CO)O3)c2n1` [CBK201208]: the viability at 28.5 h, 10 µM was 97.4%. `CN1CCC2(CCC1=O)CC(NC(=O)C1CC1)c1ccccc1O2` (stereo not drawn) [CBK284455]: the viability at 28.5 h, 10 µM came to 93.3%. Still for that read-out and setting: the value for `CCN1CCN(c2ccc([N+](=O)[O-])cc2S(=O)(=O)N2CCOCC2)CC1` [CBK264410] was 113%; that for `CCCS(=O)(=O)Nc1ccc(=O)n2c1[C@@H]1C[C@@H](CN(C(=O)c3ccc(OC)cc3)C1)C2` [CBK288711] was 78.3%; that for `O=S1(=O)CC(OS(=O)(=O)c2ccc(Cl)cc2)C(OS(=O)(=O)c2ccc(Cl)cc2)C1` (stereo not drawn) [CBK262049] was 104%.
